The values below come from patent US11266643B2, “Triaryl compounds for treatment of PD-L1 diseases” (CHEMOCENTRYX, INC., priority 2019, dated 2022).

The target of this assay is human PD-L1 (Homo sapiens (Human), UniProt Q9NZQ7). Kind of assay: Enzyme-Linked Immunosorbent Assay (ELISA), PD-1/PD-L1 binding. In short, it runs like this: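 Plates coated with […] human PD-L1 overnight at 4° C, blocked, then 1:5 serial compound dilutions added with human PD-1 […] 0.31 μg/mL for 1 h at 37° C. Bound PD-1 detected with streptavidin-HRP and TMB (20 min, 37° C); absorbance read at 450 nm after H2SO4 stop.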
For orientation: In an ELISA, binding on a coated surface is turned into a signal by an enzyme label.

Where [1] appears, read: plate-coated human PD-L1, biotinylated Human PD-1, absorbance at 450 nm.
[2] abbreviates: human PD-1/PD-L1 ELISA, plates coated with human PD-L1.
[3] abbreviates: PD-1/PD-L1 ELISA, human PD-L1 coated plates, Table 1.

Chain of human PD-L1 (Q9NZQ7 19-239): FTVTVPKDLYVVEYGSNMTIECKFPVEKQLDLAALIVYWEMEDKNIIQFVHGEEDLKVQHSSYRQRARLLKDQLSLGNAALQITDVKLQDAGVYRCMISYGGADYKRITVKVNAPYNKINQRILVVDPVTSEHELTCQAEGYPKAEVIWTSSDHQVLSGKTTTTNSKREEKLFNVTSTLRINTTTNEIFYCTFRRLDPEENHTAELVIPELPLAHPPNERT

As a reminder, the IC50 is the concentration that inhibits the measured activity by half. A lower IC50 goes with greater potency. `COc1cc(-c2cccc(-c3cccc(NC(=O)c4cn(C)c(=O)n(C)c4=O)c3Cl)c2Cl)cc(F)c1CN[C@@H]1CCC(=O)NC1` [Example 2.107] registered an IC50 under setting [1] below 10 nM. Regarding `COc1cc(-c2cccc(-c3cccc(NC(=O)c4cncn(C)c4=O)c3C)c2C)cc(F)c1CN[C@@H]1CCC[C@H]1O` [Example 1.160], under setting [2], the IC50 is below 10 nM.

As for `COc1cc(-c2cccc(-c3cccc(NC(=O)c4cncn(C)c4=O)c3C)c2C)cc(F)c1CNCc1c[nH]c(=O)[nH]c1=O` [Example 1.113], the half-inhibitory concentration (IC50) under setting [2] was below 10 nM.

In turn, `COc1cc(-c2cccc(-c3cccc(NC(=O)C4CCN(CCO)CC4)c3C)c2C)cc(F)c1CNCCO` [Example 1.395] came in with an IC50 under setting [3] of 10 to 1000 nM.

`COc1cc(-c2cccc(-c3cccc(Nc4nccc5nccnc45)c3C)c2C)cc(F)c1CN1CC(C(=O)O)C1` [Example 1.273] yielded an IC50 under setting [3] below 10 nM.

`COc1cc(-c2cccc(-c3cccc(NC(=O)c4c[nH]c(=O)n(C)c4=O)c3C)c2C)cc(F)c1CNC[C@@H](C)O` [Example 1.222] registered an IC50 under setting [3] below 10 nM. With `COc1cc(-c2cccc(-c3cccc(NC(=O)c4ccc(C(=O)O)cn4)c3C)c2C)cc(F)c1CNCCO` [Example 1.333], the IC50 under setting [3] lay in the range of 10 to 1000 nM. For the compound `COc1cc(-c2cccc(-c3cccc(NC(=O)c4cn(C)c(=O)n(C)c4=O)c3C)c2C)cc(F)c1CNCC1CCCNC1=O` (centres unmarked) [Example 1.095], the IC50 under setting [2] was below 10 nM. Same read-out and setting: under `COc1cc(-c2cccc(-c3cccc(NC(=O)c4cncn(C)c4=O)c3C)c2C)cc(F)c1CN(C)CCO` [Example 1.176] stands below 10 nM.

For the compound `COc1cc(-c2cccc(-c3cccc(NC(=O)c4ccccn4)c3C)c2C)cc(F)c1CNC(CO)CO` [Example 1.376], under setting [3], the IC50 lay within 10 to 1000 nM. Compound `COc1cc(-c2cccc(-c3cccc(NC(=O)c4nn(C)c(=O)n(C)c4=O)c3C)c2C)cc(F)c1CN[C@H]1CCCNC1=O` [Example 1.060] registered an IC50 under setting [2] of 10 to 1000 nM. Compound `COc1cc(-c2cccc(-c3cccc(NC(=O)c4cn(C)c(=O)n(C)c4=O)c3C)c2Cl)cc(F)c1CN(C)[C@H]1CNC(=O)C1` [Example 2.061] had an IC50 under setting [1] of 10 to 1000 nM. Turning to `COc1cc(-c2cccc(-c3cccc(NC(=O)c4cncn(C)c4=O)c3C)c2C)cc(F)c1CN[C@H]1CCC(=O)NC1` [Example 1.255], the IC50 under setting [3] was below 10 nM. Same read-out and setting: under `COc1cc(-c2cccc(-c3cccc(NC(=O)c4c[nH]c(=O)n(C)c4=O)c3C)c2C)cc(F)c1CNCC(C)(C)O` [Example 1.232] stands below 10 nM; under `COc1cc(-c2cccc(-c3cccc(Nc4cc5c(cn4)C(=O)NCC5)c3C)c2C)cc(F)c1CN1CC(C(=O)O)C1` [Example 1.264], 10 to 1000 nM. For `COc1cc(-c2cccc(-c3cccc(NC(=O)C4=CNCN(C)C4=O)c3C)c2C)cc(F)c1CNC[C@@H]1CCC(=O)N1C` [Example 1.194], the IC50 under setting [2] lay in the range of 10 to 1000 nM. For the compound `COc1cc(-c2cccc(-c3cccc(NC(=O)c4ccc(CNCCO)cn4)c3C)c2C)cc(F)c1CNCCS(=O)(=O)O` [Example 1.399], the IC50 under setting [2] is below 10 nM. Take `COc1cc(-c2cccc(-c3cccc(NC(=O)c4cn(C)c(=O)n(C)c4=O)c3Cl)c2Cl)cc(F)c1CN1CC[C@@H](C(=O)O)C1` [Example 2.010]: under setting [1], the IC50 was below 10 nM. Turning to `COc1cc(-c2cccc(-c3cccc(NC(=O)c4ccncn4)c3C)c2C)cc(F)c1CN1CC(O)C1` [Example 1.337], the 50% inhibitory concentration (IC50) under setting [3] was below 10 nM.

For the compound `COc1cc(-c2cccc(-c3cccc(NC(=O)c4c[nH]c(=O)n(C)c4=O)c3C)c2C)cc(F)c1CNCC[C@@H]1CCC(=O)N1` [Example 1.109], the IC50 under setting [2] was below 10 nM. The compound `COc1cc(-c2cccc(-c3cccc(NC(=O)c4c[nH]c(=O)n(C)c4=O)c3C)c2Cl)cc(F)c1CN[C@H]1CCOC[C@H]1OC` [Example 2.023] showed a half-inhibitory concentration (IC50) under setting [1] below 10 nM. In the case of `COc1cc(-c2cccc(-c3cccc(NC(=O)c4c[nH]c(=O)n(C)c4=O)c3C)c2C)cc(F)c1CNC1CCNC(=O)C1` (centres unmarked) [Example 1.096], under setting [2], the half-inhibitory concentration (IC50) is below 10 nM. For the compound `COc1cc(-c2cccc(-c3cccc(NC(=O)c4cncn(C)c4=O)c3C)c2C)cc(F)c1CN(C)C[C@@H]1CCC(=O)N1C` [Example 1.189], the half-inhibitory concentration (IC50) under setting [2] fell in the range of 10 to 1000 nM. Take `COc1cc(-c2cccc(-c3cccc(NC(=O)c4cn(C)c(=O)n(C)c4=O)c3C)c2C)cc(F)c1CNCc1cn(C)c(=O)n(C)c1=O` [Example 1.146]: under setting [2], the IC50 is below 10 nM. In turn, `COc1cc(-c2cccc(-c3cccc(Nc4ccnc5cccnc45)c3C)c2C)cc(F)c1CN1CC(C(=O)O)C1` [Example 1.263] came in with a half-maximal inhibitory concentration (IC50) under setting [3] of 10 to 1000 nM. For `COc1ccc(C(=O)Nc2cccc(-c3cccc(-c4cc(F)c(CN5CC(C(=O)O)C5)c(OC)c4)c3C)c2C)nc1` [Example 1.351], the half-maximal inhibitory concentration (IC50) under setting [3] is below 10 nM.

Compound `COc1cc(-c2cccc(-c3cccc(NC(=O)c4ccnc(C)n4)c3C)c2C)cc(F)c1CN1CC(C(=O)O)C1` [Example 1.321] had a half-maximal inhibitory concentration (IC50) under setting [3] below 10 nM. Same read-out and setting: then `COc1cc(-c2cccc(-c3cccc(NC(=O)c4ccccn4)c3C)c2Cl)cc(F)c1CN1CC(C(=O)O)C1` [Example 1.365], with below 10 nM. Regarding `COc1cc(-c2cccc(-c3cccc(NC(=O)c4cn(C)c(=O)n(C)c4=O)c3C)c2F)cc(F)c1CN[C@@H]1CCC(=O)NC1` [Example 1.004], the 50% inhibitory concentration (IC50) under setting [2] is below 10 nM. Under setting [3], `COc1cc(-c2cccc(-c3cccc(Nc4nccc5ccccc45)c3C)c2C)cc(F)c1CN1CC(C(=O)O)C1` [Example 1.262] yielded an IC50 of 1000 to 10000 nM. The same measure, in the same setting: under `COc1cc(-c2cccc(-c3cccc(NC(=O)c4ccccn4)c3C)c2C)cc(F)c1CN1CC[C@@H](C(=O)O)C1` [Example 1.366] stands below 10 nM. In turn, `COc1cc(-c2cccc(-c3cccc(NC(=O)c4cn(C)c(=O)n(C)c4=O)c3Cl)c2Cl)cc(F)c1CN[C@H]1COCC[C@@H]1O` [Example 2.071] came in with an IC50 under setting [1] below 10 nM. Compound `COc1cc(-c2cccc(-c3cccc(Nc4cncc5nccnc45)c3C)c2C)cc(F)c1CN1CC(C(=O)O)C1` [Example 1.253] had an IC50 under setting [3] below 10 nM.

Turning to `COc1cc(-c2cccc(-c3cccc(NC(=O)c4c[nH]c(=O)n(C)c4=O)c3C)c2C)cc(F)c1CNCc1ccn[nH]1` [Example 1.134], the IC50 under setting [2] was below 10 nM. With `COc1cc(-c2cccc(-c3cccc(NC(=O)c4cn(C)c(=O)n(C)c4=O)c3C)c2Cl)cc(F)c1CN[C@H]1CCOC[C@@H]1O` [Example 2.089], under setting [1], the half-maximal inhibitory concentration (IC50) is below 10 nM. Consider `COc1cc(-c2cccc(-c3cccc(NC(=O)c4cn(C)c(=O)n(C)c4=O)c3C)c2Cl)cc(F)c1CN[C@@H]1CCC(=O)NC1` [Example 2.101], for which the IC50 under setting [1] is below 10 nM.

`COc1cc(-c2cccc(-c3cccc(NC(=O)c4cncn(C)c4=O)c3C)c2C)cc(F)c1CN(C)CCC(=O)O` [Example 1.268] displayed a half-maximal inhibitory concentration (IC50) under setting [3] below 10 nM. Still for that read-out and setting: under `COc1cc(-c2cccc(-c3cccc(NC(=O)c4c[nH]c(=O)n(C)c4=O)c3C)c2C)cc(F)c1CN1CC2(C1)NC(=O)NC2=O` [Example 1.242] stands 10 to 1000 nM. For the compound `COc1cc(-c2cccc(-c3cccc(NC(=O)c4c[nH]c(=O)n(C)c4=O)c3C)c2C)cc(F)c1CN[C@@H]1CCOC[C@@H]1O` [Example 1.111], the 50% inhibitory concentration (IC50) under setting [2] is below 10 nM.

Compound `COc1cc(-c2cccc(-c3cccc(Nc4cccc5nccnc45)c3C)c2C)cc(F)c1CN1CC(C(=O)O)C1` [Example 1.248] gave an IC50 under setting [3] of 10 to 1000 nM.

`COc1cc(-c2cccc(-c3cccc(NC(=O)c4cn(C)c(=O)n(C)c4=O)c3C)c2Cl)cc(F)c1CN[C@@H]1COC[C@H]1O` [Example 2.090] registered an IC50 under setting [1] below 10 nM.

`COc1cc(-c2cccc(-c3cccc(NC(=O)c4ccc(C(=O)N(C)C)cn4)c3C)c2C)cc(F)c1CN` [Example 1.306] gave an IC50 under setting [3] below 10 nM. As to `COc1cc(-c2cccc(-c3cccc(Nc4nccc5nccnc45)c3C)c2C)cc(F)c1CNCc1c[nH]c(=O)[nH]c1=O` [Example 1.101], the IC50 under setting [2] lay in the range of 10 to 1000 nM. Same read-out and setting: then `COc1cc(-c2cccc(-c3cccc(NC(=O)c4cccn(C)c4=O)c3C)c2C)cc(F)c1CNC[C@H]1CCC(=O)N1` [Example 1.145], with below 10 nM. Same read-out and setting: then `COc1cc(-c2cccc(-c3cccc(NC(=O)c4cncn(C)c4=O)c3C)c2C)cc(F)c1CNCC1CCCNC1=O` (centres unmarked) [Example 1.098], with below 10 nM. Compound `COc1cc(-c2cccc(-c3cccc(NC(=O)c4c[nH]c(=O)n(C)c4=O)c3C)c2C)cc(F)c1CN1CCC(N)C1` (centres unmarked) [Example 1.228] showed an IC50 under setting [3] of 10 to 1000 nM. For `COc1cc(-c2cccc(-c3cccc(Nc4nccc5c4C(=O)N(C)CC5)c3C)c2C)cc(F)c1CNC[C@@H]1CCC(=O)N1` [Example 1.193], the IC50 under setting [2] is below 10 nM. Compound `COc1cc(-c2cccc(-c3cccc(NC(=O)c4cn(C)c(=O)n(C)c4=O)c3C)c2Cl)cc(F)c1CN[C@H]1CCC[C@@H]1O` [Example 2.060] gave an IC50 under setting [1] below 10 nM. Same read-out and setting: under `COc1cc(-c2cccc(-c3cccc(NC(=O)c4cn(C)c(=O)n(C)c4=O)c3C)c2Cl)cc(F)c1CN1CC[C@@H](O)C1` [Example 2.016] stands below 10 nM. `COc1cc(-c2cccc(-c3cccc(NC(=O)c4c[nH]c(=O)n(C)c4=O)c3C)c2C)cc(F)c1CN1CCNC(=O)C1` [Example 1.183]: the 50% inhibitory concentration (IC50) under setting [2] lay in the range of 1000 to 10000 nM. Regarding `COc1cc(-c2cccc(-c3cccc(NC(=O)c4cncn(C)c4=O)c3C)c2C)cc(F)c1CNC1CCC1` [Example 1.202], under setting [3], the IC50 was below 10 nM.

With `COc1cc(-c2cccc(-c3cccc(NC(=O)c4cn(C)c(=O)n(C)c4=O)c3C)c2C)cc(F)c1CNCc1ccnn1C` [Example 1.112], the 50% inhibitory concentration (IC50) under setting [2] lay within 10 to 1000 nM. Under setting [1], `COc1cc(-c2cccc(-c3cccc(NC(=O)c4cncn(C)c4=O)c3C)c2Cl)cc(F)c1CN[C@@H]1CCOC[C@@H]1O` [Example 2.042] had a concentration for half-maximal inhibition (IC50) below 10 nM. In turn, `COc1cc(-c2cccc(-c3cccc(Nc4nccc5nccnc45)c3C)c2C)cc(F)c1CNC[C@@H]1CCC(=O)N1` [Example 1.200] showed a half-maximal inhibitory concentration (IC50) under setting [3] below 10 nM.

As for `COc1cc(-c2cccc(-c3cccc(NC(=O)c4nn(C)c(=O)n(C)c4=O)c3C)c2C)cc(F)c1CNCCN1CCCC1=O` [Example 1.092], the IC50 under setting [2] is below 10 nM. On to `COc1cc(-c2cccc(-c3cccc(NC(=O)c4cn(C)c(=O)n(C)c4=O)c3F)c2C)cc(F)c1CN[C@@H]1CNC(=O)C1` [Example 1.044], for which the IC50 under setting [2] fell in the range of 10 to 1000 nM.
